Data taken from US12208092B2, “Compositions and methods for administering paltusotine to patients with hepatic impairment” (CRINETICS PHARMACEUTICALS, INC., priority 2023, dated 2025).
Converted amounts (≈) assume the structure as drawn. Where two headings read alike, the source gives them in different places.

Columns and labels:
[1] = Phase 1 hepatic impairment study, plasma PK after single oral 20 mg tablet; format: in vivo, human; details: for AUC(0-t) / AUC(0-inf) / Cmax / MRT inf / Vd/F / half-life / Tmax: both sexes, human, plasma, oral, 20 mg; for AUC(0-inf): read-out: AUC(0-inf), Mean ± SD; for Cmax: read-out: Cmax, Mean ± SD; for MRT inf: read-out: MRT(0-inf), Median (min, max); for Vd/F: read-out: VZ/F, Mean ± SD; for half-life: read-out: t1/2, Mean ± SD (converted); for Tmax: read-out: tmax, Median (min, max); for AUC(0-inf) Geometric Mean Ratio (90% CI), sensitivity analysis / AUC(0-t) Geometric Mean Ratio (90% CI), sensitivity analysis / Cmax Geometric Mean Ratio (90% CI), sensitivity analysis: matched pairs MMRM with age and BMI
Text: Overall, 36 male and female subjects were enrolled, including 14 subjects with normal hepatic function, 8 subjects with mild stable hepatic impairment (Group 1), 8 subjects with moderate stable hepatic impairment (Group 2), and 6 subjects with severe stable hepatic impairment (Group 3). Healthy subjects with normal hepatic function (Group 4) were matched with hepatically impaired subjects according to sex, age (±10 years), and BMI (±20%). A reasonable attempt was made to match healthy subjects with hepatically impaired subjects in terms of race. Healthy subjects may have matched to more than 1 subject in different hepatic impairment groups but not more than 1 subject within each hepatic impairment group. Healthy subjects were recruited into the study after a sufficient number of hepatically impaired subjects were enrolled in Groups 1, 2, and 3.
The Child-Pugh scale was used to categorize the degree of hepatic impairment for assignment into the mild (score of 5-6), moderate (score of 7-9), and severe hepatic impairment (score of 10-15) groups.
The study included a screening period (Days −28 to −2), check-in (Day −1), and a treatment period (Days 1 to 7). On Day 1, all subjects received a single oral dose of 20 mg of paltusotine (1×20 mg tablet) administered with 240 mL of room temperature water following an overnight fast (nothing to eat or drink except water) of at least 10 hours. Subjects remained fasted and upright (seated or standing) for 4 hours after dosing. Water was permitted as desired except for the period 1 hour before and 1 hour after administration of study drug. Subjects received standardized meals that were scheduled at the same time daily during the study.
Serial blood samples for PK analysis of paltusotine were collected before dosing (0 hour) and up to 144 hours after administration of paltusotine.
Blood samples for analysis of paltusotine concentrations in plasma were collected at the following time points: before dosing (0 hour) and at 0.25, 0.5, 0.75, 1, 1.25, 1.5, 2, 3, 4, 6, 8, 10, 12, 24, 48, 72, 96, 120, and 144 hours after administration of paltusotine.
Pharmacokinetic samples were analyzed using a validated liquid chromatography coupled with tandem mass spectrometry assay for paltusotine in human plasma.
Plasma concentration-time data was analyzed by non-compartmental analysis using Phoenix® WinNonlin® Version 8.3 (Certara USA, Inc., Princeton, NJ).

[2] = target: SST2 (Homo sapiens, UniProt P30874); assay: bias of G-protein activation versus β-arrestin activation; format: cell-based
[3] = target: human somatostatin receptor 2 (SST2) (Homo sapiens, UniProt P30874); details: read-out: EC50, inhibition of cAMP accumulation via SST2 activation; average, in vitro
[4] = system: plasma GH; assay: suppression of plasma GH after rGHRH challenge in rat; format: in vivo
Method: (§1) The in vivo pharmacological efficacy of paltusotine has been examined in rat and dog. In the rat, acute efficacy was evaluated by examining the suppression of plasma GH in response to a challenge with rat growth hormone releasing hormone (rGHRH). […] The effects of chronic, oral, 14-day administration of paltusotine were evaluated by measuring the sustained suppression of IGF-1 in the rat.

[5] = system: plasma IGF-1; assay: chronic oral 14-day administration, suppression of IGF-1 in rat; format: in vivo
Method: as §1

Sequence of human somatostatin receptor 2 (SST2) (P30874 whole entry): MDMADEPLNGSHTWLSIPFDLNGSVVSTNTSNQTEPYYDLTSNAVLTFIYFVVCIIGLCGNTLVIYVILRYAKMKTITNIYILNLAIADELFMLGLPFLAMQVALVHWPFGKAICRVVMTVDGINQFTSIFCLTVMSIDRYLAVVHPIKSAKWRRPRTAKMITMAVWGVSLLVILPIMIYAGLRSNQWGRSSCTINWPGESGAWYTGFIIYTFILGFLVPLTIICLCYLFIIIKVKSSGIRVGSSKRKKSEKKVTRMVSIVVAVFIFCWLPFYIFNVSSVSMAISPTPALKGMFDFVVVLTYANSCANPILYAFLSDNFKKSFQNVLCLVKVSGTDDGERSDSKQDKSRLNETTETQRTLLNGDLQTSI
Sequence of SST2 (P30874 whole entry): as above

Molecule `N#Cc1cccc(-c2ccc3ncc(-c4cc(F)cc(F)c4)c(N4CCC(N)CC4)c3c2)c1O` [paltusotine, 3-[4-(4-amino-1-piperidyl)-3-(3,5-difluorophenyl)-6-quinolyl]-2-hydroxybenzonitrile] has an AUC(0-t) ([1]; mild hepatic impairment, read-out: AUC(0-24), Mean ± SD) of 1150 ± 467 ng·h/mL, an AUC(0-inf) ([1]; mild hepatic impairment) of 1880 ± 926 ng·h/mL and an AUC(0-t) ([1]; mild hepatic impairment, read-out: AUC(0-t), Mean ± SD) of 1820 ± 888 ng·h/mL. The Cmax ([1]; mild hepatic impairment) was 133 ± 56.6 ng/mL, the MRT inf ([1]; mild hepatic impairment) was 28.3 h and the Vd/F ([1]; mild hepatic impairment) was 565 ± 348 L. It also gave a half-life ([1]; mild hepatic impairment) of 29.5 ± 9.4 h, a Tmax ([1]; mild hepatic impairment) of 1.63 h and an AUC(0-t) ([1]; moderate hepatic impairment, read-out: AUC(0-24), Mean ± SD) of 1050 ± 729 ng·h/mL. It also gave an AUC(0-inf) ([1]; moderate hepatic impairment) of 1620 ± 1050 ng·h/mL, an AUC(0-t) ([1]; moderate hepatic impairment, read-out: AUC(0-t), Mean ± SD) of 1580 ± 1040 ng·h/mL and a Cmax ([1]; moderate hepatic impairment) of 100 ± 74.6 ng/mL. The MRT inf ([1]; moderate hepatic impairment) was 25.2 h, the Vd/F ([1]; moderate hepatic impairment) was 1050 ± 1110 L and the half-life ([1]; moderate hepatic impairment) was 31.2 ± 7.93 h. The Tmax ([1]; moderate hepatic impairment) was 2 h, the AUC(0-t) ([1]; normal hepatic function, read-out: AUC(0-24), Mean ± SD) was 1070 ± 545 ng·h/mL and the AUC(0-inf) ([1]; normal hepatic function) was 1840 ± 947 ng·h/mL. The AUC(0-t) ([1]; normal hepatic function, read-out: AUC(0-t), Mean ± SD) was 1780 ± 914 ng·h/mL, the Cmax ([1]; normal hepatic function) was 101 ± 53.7 ng/mL and the MRT inf ([1]; normal hepatic function) was 34.6 h. The Vd/F ([1]; normal hepatic function) was 660 ± 407 L, the half-life ([1]; normal hepatic function) was 32.8 ± 6.92 h and the Tmax ([1]; normal hepatic function) was 2 h. For the same molecule, the AUC(0-t) ([1]; severe hepatic impairment, read-out: AUC(0-24), Mean ± SD) was 1100 ± 704 ng·h/mL, the AUC(0-inf) ([1]; severe hepatic impairment) was 1740 ± 1230 ng·h/mL and the AUC(0-t) ([1]; severe hepatic impairment, read-out: AUC(0-t), Mean ± SD) was 1680 ± 1190 ng·h/mL. It also gave a Cmax ([1]; severe hepatic impairment) of 110 ± 72.7 ng/mL, an MRT inf ([1]; severe hepatic impairment) of 29.2 h and a Vd/F ([1]; severe hepatic impairment) of 666 ± 479 L. For the same molecule, the half-life ([1]; severe hepatic impairment) was 29.4 ± 8.38 h, the Tmax ([1]; severe hepatic impairment) was 3 h and the “CL/F, Mean ± SD” value ([1]; mild hepatic impairment) was 15.50 ± 13.496 L/h. For the same molecule, the “Cmax higher relative to normal group” value ([1]; mild hepatic impairment) was 35%, the “tlag, Median (min, max)” value ([1]; mild hepatic impairment) was 0.00 (0.0, 0.3) h and the “AUC(0-inf) Geometric Mean Ratio (90% CI), sensitivity analysis” value (shortened to “AUC(0-inf) Geometric Mean Ratio (90% CI)”) ([1]; mild vs normal) was 0.94 (0.591, 1.504). For the same molecule, the “AUC(0-t) Geometric Mean Ratio (90% CI), sensitivity analysis” value (from here on “AUC(0-t) Geometric Mean Ratio (90% CI)”) ([1]; mild vs normal) was 0.95 (0.591, 1.515), the “Cmax Geometric Mean Ratio (90% CI), sensitivity analysis” value (shortened to “Cmax Geometric Mean Ratio (90% CI)”) ([1]; mild vs normal) was 1.38 (0.871, 2.200) and the “AUC0-t and AUC0-inf lower relative to normal group” value ([1]; moderate hepatic impairment) was “approximately 25%”. For the same molecule, the “CL/F, Mean ± SD” value ([1]; moderate hepatic impairment) was 24.89 ± 25.914 L/h, the “Cmax lower relative to normal group” value ([1]; moderate hepatic impairment) was 24% and the “mean CL/F higher compared to normal group” value ([1]; moderate hepatic impairment) was 1.8 fold. For the same molecule, the “mean Vz/F higher compared to normal group” value ([1]; moderate hepatic impairment) was 1.6 fold, the “tlag, Median (min, max)” value ([1]; moderate hepatic impairment) was 0.13 (0.0, 0.5) h and the “AUC(0-inf) Geometric Mean Ratio (90% CI)” value ([1]; moderate vs normal) was 0.72 (0.414, 1.251). The “AUC(0-t) Geometric Mean Ratio (90% CI)” value ([1]; moderate vs normal) was 0.71 (0.403, 1.254), the “Cmax Geometric Mean Ratio (90% CI)” value ([1]; moderate vs normal) was 0.74 (0.389, 1.412) and the “CL/F, Mean ± SD” value ([1]; normal hepatic function) was 14.05 ± 7.521 L/h. For the same molecule, the “tlag, Median (min, max)” value ([1]; normal hepatic function) was 0.00 (0.0, 0.3) h, the “time through which concentration was measurable in systemic circulation” value ([1]; postdose, all groups) was 144 h and the “CL/F, Mean ± SD” value ([1]; severe hepatic impairment) was 15.92 ± 8.507 L/h. The “tlag, Median (min, max)” value ([1]; severe hepatic impairment) was 0.00 (0.0, 0.3) h, the “AUC(0-inf) Geometric Mean Ratio (90% CI)” value ([1]; severe vs normal) was 0.94 (0.516, 1.702) and the “AUC(0-t) Geometric Mean Ratio (90% CI)” value ([1]; severe vs normal) was 0.93 (0.512, 1.702). The “Cmax Geometric Mean Ratio (90% CI)” value ([1]; severe vs normal) was 1.04 (0.586, 1.854), the “bias for G-protein activation (lowering cAMP) compared to β-arrestin activation” value [2] was 75 fold and the EC50 [3] was 250 pM. For the same molecule, the EC50 ([4]; Rattus norvegicus, po, read-out: plasma EC50 for GH suppression) was 0.011 µg/mL (≈ 0.0241 µM), the “doses that significantly and dose dependently suppressed GH relative to vehicle” value ([4]; oral, acute, rGHRH challenge) was ≥ 3 mg/kg and the “dose efficacious in suppressing plasma IGF-1 for up to 14 days” value [5] was > 10 mg/kg/day.
